{"source": "patent US20250282749A1", "about": "(Tango Therapeutics, Inc., priority 2022, published 2025)", "type_in_all_cases": "cell-based", "key": {"[1]": {"test_system": "PRMT5 (SDMA) in HAP1 MTAP-intact cell line", "assay": "SDMA in-cell western assay, HAP1 MTAP-intact cell line", "conditions": "Homo sapiens, HAP1 MTAP-intact cell line (endogenous MTAP), read-out: Hap 1 MTAP intact IC50", "source_text": "(§1) HAP1 MTAP-intact is a cell line in which endogenous levels of MTAP are expressed, and HAP1 MTAP-deleted is an MTAP-null cell line."}, "[2]": {"test_system": "PRMT5 (SDMA) in HAP1 MTAP-deleted cell line", "assay": "SDMA in-cell western assay, HAP1 MTAP-deleted cell line", "conditions": "for IC50 / IC90: Homo sapiens, SDMA in-cell western, HAP1 MTAP-deleted (MTAP-null) cell line; for Hap1 MTAP intact/deleted ratio: ratio of SDMA in-cell western IC50 in HAP1 MTAP-intact to IC50 in HAP1 MTAP-deleted cell line", "source_text": "as §1"}, "[3]": {"test_system": "HAP1 MTAP-deleted cell line", "assay": "viability assay for the MTAP-deleted cell line", "conditions": "Homo sapiens"}}, "data": [{"smiles": "C[C@@H]1CN(C(=O)C(=O)Nc2cnc(N)c3cn[nH]c23)[C@@H](c2cccc(Cl)c2)CN1C", "note": "[Compound 18]", "values": [{"measurement": "IC50", "setting": "[1]", "value": "> 50", "unit": "nM"}, {"measurement": "IC50", "setting": "[2]", "value": "< 5", "unit": "nM"}, {"measurement": "IC90", "setting": "[2]", "value": "< 75", "unit": "nM"}, {"measurement": "Hap1 MTAP intact/deleted ratio", "setting": "[2]", "value": "A (an IC50 ratio greater than or equal to 30 fold)"}, {"measurement": "IC50", "setting": "[3]", "value": "< 100", "unit": "nM"}]}, {"smiles": "Cc1cc(NC(=O)C(=O)N2C[C@@H](C)N(C(=O)OC(C)(C)C)C[C@@H]2c2ccc(F)c(F)c2)cnc1N", "note": "[Compound 21]", "values": [{"measurement": "IC50", "setting": "[1]", "value": "> 50", "unit": "nM"}, {"measurement": "IC50", "setting": "[2]", "value": "5 to 50", "unit": "nM"}, {"measurement": "IC90", "setting": "[2]", "value": "75 to 125", "unit": "nM"}, {"measurement": "Hap1 MTAP intact/deleted ratio", "setting": "[2]", "value": "C (an IC50 ratio of less than 15 fold)"}, {"measurement": "IC50", "setting": "[3]", "value": "100 to 1000", "unit": "nM"}]}, {"smiles": "C[C@@H]1CN(C(=O)C(=O)Nc2cnc(N)c(C3CC3)c2)[C@@H](c2ccc(F)c(F)c2)CN1C(=O)C1(C(F)(F)F)CC1", "note": "[Compound 22]", "values": [{"measurement": "IC50", "setting": "[1]", "value": "> 50", "unit": "nM"}, {"measurement": "IC50", "setting": "[2]", "value": "5 to 50", "unit": "nM"}, {"measurement": "IC90", "setting": "[2]", "value": "75 to 125", "unit": "nM"}, {"measurement": "Hap1 MTAP intact/deleted ratio", "setting": "[2]", "value": "B (an IC50 ratio greater than or equal to 15 fold but lower than 30 fold)"}, {"measurement": "IC50", "setting": "[3]", "value": "< 100", "unit": "nM"}]}, {"smiles": "CC(C)C(=O)N1C[C@H](c2ccc(F)c(Cl)c2)N(C(=O)C(=O)Nc2cnc(N)c(C3CC3)c2)C[C@H]1C", "note": "[Compound 24, N-(6-amino-5-cyclopropylpyridin-3-yl)-2-((2S,5R)-2-(3-chloro-4-fluorophenyl)-4-isobutyryl-5-methylpiperazin-1-yl)-2-oxoacetamide]", "values": [{"measurement": "IC50", "setting": "[1]", "value": "> 50", "unit": "nM"}, {"measurement": "IC50", "setting": "[2]", "value": "< 5", "unit": "nM"}, {"measurement": "IC90", "setting": "[2]", "value": "< 75", "unit": "nM"}, {"measurement": "Hap1 MTAP intact/deleted ratio", "setting": "[2]", "value": "B (an IC50 ratio greater than or equal to 15 fold but lower than 30 fold)"}, {"measurement": "IC50", "setting": "[3]", "value": "< 100", "unit": "nM"}]}, {"smiles": "Cc1cc(NC(=O)C(=O)N2C[C@@H](C)N(C(=O)OC(C)(C)C)C[C@@H]2c2ccccc2)cnc1N", "note": "[Compound 25]", "values": [{"measurement": "IC50", "setting": "[1]", "value": "5 to 50", "unit": "nM"}, {"measurement": "IC50", "setting": "[2]", "value": "< 5", "unit": "nM"}, {"measurement": "IC90", "setting": "[2]", "value": "< 75", "unit": "nM"}, {"measurement": "Hap1 MTAP intact/deleted ratio", "setting": "[2]", "value": "C (an IC50 ratio of less than 15 fold)"}, {"measurement": "IC50", "setting": "[3]", "value": "< 100", "unit": "nM"}]}, {"smiles": "Cc1cc(NC(=O)C(=O)N2C[C@@H](C)N(C(=O)C(C)(C)N(C)C)C[C@@H]2c2ccccc2)cnc1N", "note": "[Compound 28]", "values": [{"measurement": "IC50", "setting": "[1]", "value": "> 50", "unit": "nM"}, {"measurement": "IC50", "setting": "[2]", "value": "5 to 50", "unit": "nM"}, {"measurement": "IC90", "setting": "[2]", "value": "75 to 125", "unit": "nM"}, {"measurement": "Hap1 MTAP intact/deleted ratio", "setting": "[2]", "value": "B (an IC50 ratio greater than or equal to 15 fold but lower than 30 fold)"}, {"measurement": "IC50", "setting": "[3]", "value": "< 100", "unit": "nM"}]}, {"smiles": "Cc1cc(NC(=O)C(=O)N2C[C@@H](C)N(C(=O)C3(C(F)(F)F)CC3)C[C@@H]2c2ccc(F)c(Cl)c2)cnc1N", "note": "[Compound 29, N-(6-amino-5-methylpyridin-3-yl)-2-((2S,5R)-2-(3-chloro-4-fluorophenyl)-5-methyl-4-(1-(trifluoromethyl)cyclopropanecarbonyl)piperazin-1-yl)-2-oxoacetamide]", "values": [{"measurement": "IC50", "setting": "[1]", "value": "> 50", "unit": "nM"}, {"measurement": "IC50", "setting": "[2]", "value": "< 5", "unit": "nM"}, {"measurement": "IC90", "setting": "[2]", "value": "< 75", "unit": "nM"}, {"measurement": "Hap1 MTAP intact/deleted ratio", "setting": "[2]", "value": "B (an IC50 ratio greater than or equal to 15 fold but lower than 30 fold)"}, {"measurement": "IC50", "setting": "[3]", "value": "< 100", "unit": "nM"}]}, {"smiles": "Cc1cccc([C@H]2CN(C(=O)C3(C(F)(F)F)CC3)[C@H](C)CN2C(=O)C(=O)Nc2cnc(N)c(C)c2)c1", "note": "[Compound 30, N-(6-amino-5-methylpyridin-3-yl)-2-((2S,5R)-5-methyl-2-(m-tolyl)-4-(1-(trifluoromethyl)cyclopropanecarbonyl)piperazin-1-yl)-2-oxoacetamide]", "values": [{"measurement": "IC50", "setting": "[1]", "value": "> 50", "unit": "nM"}, {"measurement": "IC50", "setting": "[2]", "value": "5 to 50", "unit": "nM"}, {"measurement": "IC90", "setting": "[2]", "value": "75 to 125", "unit": "nM"}, {"measurement": "Hap1 MTAP intact/deleted ratio", "setting": "[2]", "value": "C (an IC50 ratio of less than 15 fold)"}, {"measurement": "IC50", "setting": "[3]", "value": "< 100", "unit": "nM"}]}, {"smiles": "Cc1cc(NC(=O)C(=O)N2C[C@@H](C)N(C(=O)C3(C)CC3)C[C@@H]2c2ccsc2)cnc1N", "note": "[Compound 31, N-(6-amino-5-methyl-3-pyridyl)-2-[(2S,5R)-5-methyl-4-(1-methylcyclopropanecarbonyl)-2-(3-thienyl)piperazin-1-yl]-2-oxo-acetamide]", "values": [{"measurement": "IC50", "setting": "[1]", "value": "> 50", "unit": "nM"}, {"measurement": "IC50", "setting": "[2]", "value": "< 5", "unit": "nM"}, {"measurement": "IC90", "setting": "[2]", "value": "> 125", "unit": "nM"}, {"measurement": "Hap1 MTAP intact/deleted ratio", "setting": "[2]", "value": "B (an IC50 ratio greater than or equal to 15 fold but lower than 30 fold)"}, {"measurement": "IC50", "setting": "[3]", "value": "< 100", "unit": "nM"}]}, {"smiles": "CCc1cc(NC(=O)C(=O)N2C[C@@H](C)N(CC(C)C)C[C@@H]2c2ccccc2)cnc1N", "note": "[Compound 32, N-(6-amino-5-ethylpyridin-3-yl)-2-((2S,5R)-4-isobutyl-5-methyl-2-phenylpiperazin-1-yl)-2-oxoacetamide]", "values": [{"measurement": "IC50", "setting": "[1]", "value": "> 50", "unit": "nM"}, {"measurement": "IC50", "setting": "[2]", "value": "5 to 50", "unit": "nM"}, {"measurement": "IC90", "setting": "[2]", "value": "> 125", "unit": "nM"}, {"measurement": "Hap1 MTAP intact/deleted ratio", "setting": "[2]", "value": "A (an IC50 ratio greater than or equal to 30 fold)"}, {"measurement": "IC50", "setting": "[3]", "value": "< 100", "unit": "nM"}]}, {"smiles": "CCc1cc(NC(=O)C(=O)N2C[C@@H](C)N(C(=O)C(C)(C)C)C[C@@H]2c2ccc(F)cc2)cnc1N", "note": "[Compound 33, N-(6-amino-5-ethylpyridin-3-yl)-2-((2S,5R)-2-(4-fluorophenyl)-5-methyl-4-pivaloylpiperazin-1-yl)-2-oxoacetamide]", "values": [{"measurement": "IC50", "setting": "[1]", "value": "5 to 50", "unit": "nM"}, {"measurement": "IC50", "setting": "[2]", "value": "< 5", "unit": "nM"}, {"measurement": "IC90", "setting": "[2]", "value": "< 75", "unit": "nM"}, {"measurement": "Hap1 MTAP intact/deleted ratio", "setting": "[2]", "value": "C (an IC50 ratio of less than 15 fold)"}, {"measurement": "IC50", "setting": "[3]", "value": "< 100", "unit": "nM"}]}]}
